Results published in patent US20230348467A1, “Heteroaryl Derivative, Preparation Method Therefor, And Use Thereof” (Zhejiang Hisun Pharmaceutical Co., Ltd., priority 2020, published 2023).

What was measured:
[1] = biological target: recombinant human full-length SHP2 (Homo sapiens (Human), UniProt Q06124); assay: Allosteric inhibition of full-length SHP2 enzyme (DiFMUP fluorescence); type: biochemical; details: full-length SHP2 0.5 nM, activating peptide 0.5 uM, DiFMUP substrate
Source text: The following method was used to determine the inhibition degrees of the compounds of the present invention on the activity of recombinant human full-length SHP2 in vitro. SHP2 was allosterically activated by the binding of di-tyrosyl-phosphorylated peptide to a Src homologous 2(SH2) domain of SHP2. An activation step of the latter leads to the self-inhibitory interface release of SHP2, and then activates SHP2 protein tyrosine phosphatase (PTP), which might be used for substrate recognition and reaction catalysis.
The experimental process was briefly described as follows: Test compounds were first dissolved in DMSO to prepare storage solutions. […] Then, the compounds to be tested were added in a concentration range of 0.00004-10 uM and incubated at 25° C. for 60 minutes. Then DiFMUP (Thermo, D6567) was added in the reaction and incubated at 25° C. for 30 minutes. After incubation, readings were taken using a microplate reader (BMG) with excitation and emission wavelengths of 340 nm and 450 nm, respectively.

[2] = test system: NCI-H23 cells (containing KRAS G12C mutation); assay: Inhibition of NCI-H23 cell proliferation (CellTiter-Glo); type: cell-based; details: Homo sapiens, 120 hours culture
Procedure: (§1) The following method was used to determine the effects of the compounds of the present invention on NCI-H23 cell proliferation. NCI-H23 cells (containing KRAS G12C mutation) were purchased from Cell Resource Center of Shanghai Institutes for Biological Sciences, Chinese Academy of Sciences, and cultured in RPMI 1640 mediums containing 10% fetal bovine serum, 100 U penicillin, 100 μg/mL streptomycin and 1 mM Sodium Pyruvate. The activities of the cells were determined by CellTiter-Glo® Luminescent Cell Viability Assay kit (Promega, article number: G7573).
(§2) The experimental method was operated according to the steps in the kit instruction, and was briefly described as follows: test compounds were first dissolved in DMSO to prepare storage solutions of 10 mM, and then diluted in mediums, prepared as test samples. The final concentrations of the test compounds were 10,000 nM to 1.52 nM. The cells in logarithmic phase were inoculated in a 96-well cell culture plate with 1,000 cells per well, after cultured overnight in 5% CO2 incubator at 37° C., the test compounds were added to the incubator to continue the culture for 120 hours. After the culture, 50 μL of CellTiter-Glo detection solution was added to each well, shaken for 5 minutes, and then stood for 10 minutes. Then, a Luminescence mode was used to read the luminescence values of each well of the samples on a microplate reader. Compared with the numerical value of a control group (0.3% DMSO), the percentage inhibition rates of the compounds at each concentration were calculated, and the IC50 values of the compounds inhibiting cell proliferation were obtained by performing nonlinear regression analysis with logarithmic values of the compound concentration—inhibition rate by GraphPad Prism 5 software, which was shown in Table 2.

[3] = test system: NCI-H358 cells (containing KRAS G12C mutation); assay: Inhibition of NCI-H358 cell proliferation (CellTiter-Glo); type: cell-based; details: Homo sapiens, NCI-H358, 120 h, read-out: IC50(nM)/NCI-H358
Procedure: as §1, with “NCI-H358” for “NCI-H23”
as §2, with “of the” for “of a”, “Table 3.” for “Table 2.”

[4] = Pharmacokinetic test in ICR mice, intragastric (Test Example 4); type: in vivo; details: PO
Source text: ICR mice were used as test animals, and LC/MS/MS methods was used to determine the drug concentrations at different moments in plasma of mice administered by intragastric injection with the compound 5 and the compound 6 of the present invention, and to study the pharmacokinetic characteristics of the compounds of the present invention in mice. An appropriate amount of drug was weighed, added with an appropriate amount of sodium carboxymethylcellulose (CMC-Na, containing 0.5% Tween 80), vortexed, and ultrasonically prepared into 1 mg/kg suspension. The ICR mice in the intragastric group of each compound to be tested (9 mice in each group) were fasted overnight and then administered by intragastric injection (PO, […], and administration volume of 10 mL/kg), and ate 4 hours after administration. About 0.2 mL of blood was collected via jugular vein before administration and 0.083 hour, 0.25 hour, 0.5 hour, 1 hour, 2 hours, 4 hours, 8 hours and 24 hours after administration, and heparin sodium was used for anticoagulation. The collected blood samples were placed on ice, and plasma was separated by centrifugation (centrifugation condition: 1,500 g, 10 minutes). The collected plasma samples were stored at −40° C. to −20° C. before analysis. LC-MS/MS was used to determine the contents of the compounds to be tested in mouse plasma after intragastric administration.

[5] = Pharmacokinetic test of mice, intragastric (Test Example 5); type: in vivo; details: ICR mice, PO, 5 mg/kg
Source text: ICR mice were used as test animals, and LC/MS/MS methods was used to determine the drug concentrations at different moments in plasma of mice administered by intragastric injectiion with the compound 27 of the present invention, and to study the pharmacokinetic characteristics of the compound of the present invention in mice. An appropriate amount of drug compound 27 was weighed, added with an appropriate amount of sodium carboxymethylcellulose (CMC-Na, containing 0.5% Tween 80), vortexed, and ultrasonically prepared into 0.5 mg/kg suspension. The ICR mice in the intragastric group of each compound to be tested (9 mice in each group) were fasted overnight and then administered by intragastric injection (PO, administration dose of the compound 27 was 5 mg/kg, and administration volume of the compound 27 was 10 mL/kg), and ate 4 hours after administration. About 0.2 mL of blood was collected via jugular vein before administration and 0.083 hour, 0.25 hour, 0.5 hour, 1 hour, 2 hours, 4 hours, 8 hours, 12 hours and 24 hours after administration, and heparin sodium was used for anticoagulation. The collected blood samples were placed on ice, and plasma was separated by centrifugation (centrifugation condition: 1,500 g, 10 minutes). The collected plasma samples were stored at −40° C. to −20° C. before analysis. LC-MS/MS was used to determine the content of the compound to be tested in mouse plasma after intragastric administration.

[6] = test system: NCI-H358 subcutaneous transplanted tumors; assay: Growth inhibition of subcutaneous transplanted NCI-H358 tumors in BALB/c nude mice; type: in vivo
Procedure: To evaluate antitumor effects and safety of the compounds of Example 27 in an animal model of BALB/c nude mice with subcutaneous transplanted NCI-H358 cell lines
An approximate amount of the compound of Example 27 was weighed, added with an approximate amount of DMA (dimethylacetamide) to fully dissolve the compound, then added with Solutol HS 15 and Saline (DMA: Solutol HS 15: Saline=5:10:85 (v/v/v)) in turn, and mixed evenly by vortex, and the configuration concentration was 3 mg/mL.
BALB/c nude mice, female, 6-7 weeks old (the age of mice when tumor cells were inoculated), 12 mice, purchased from Jiangsu GemPharmatech.
NCI-H358 cells were cultured in RPMI 1640 mediums containing 10% fetal bovine serum, 1% sodium pyruvate and 1% glutamine. NCI-H358 cells in exponential growth period were collected, and resuspend in PBS to a suitable concentration for subcutaneous tumor inoculation in nude mice.
12 female BALB/c nude mice were subcutaneously inoculated with about 3×10^6 NCI-H358 cells on the right sides of their backs. When the average volume of tumors reaches about 100 mm^3 to 200 mm^3, the mice were randomly divided according to tumor sizes with 6 mice in each group. The animals in each group were given the subjects once a day (qd) according to the animal body weights at a fixed time every day according to the table below, administered orally (po) for 10 consecutive days, and the daily body weights were recorded.
After tumor inoculation, routine monitoring included the effects of tumor growth and treatment on the normal behaviors of the animals, specifically the mobility, feeding and drinking, weight gain or loss, eyes, coat and other abnormalities of the experimental animals.
(1) TV (tumor volume)=½×a×b^2, wherein a and b represent the length and the width of the tumor respectively;
(2) RTV (relative tumor volume)=Vt/V0, wherein V0 is the tumor volume measured at the time of grouping administration (i.e., d0), and Vt is the tumor volume at each measurement;
(3) Relative tumor proliferation rate T/C (%)=TRTV/CRTV×100%, wherein TRTV is the RTV of the treatment group and CRTV is the RTV of the control group;

[7] = Day 10, 30 mg/kg po qd for 10 days

Chain of recombinant human full-length SHP2 (Q06124 whole entry): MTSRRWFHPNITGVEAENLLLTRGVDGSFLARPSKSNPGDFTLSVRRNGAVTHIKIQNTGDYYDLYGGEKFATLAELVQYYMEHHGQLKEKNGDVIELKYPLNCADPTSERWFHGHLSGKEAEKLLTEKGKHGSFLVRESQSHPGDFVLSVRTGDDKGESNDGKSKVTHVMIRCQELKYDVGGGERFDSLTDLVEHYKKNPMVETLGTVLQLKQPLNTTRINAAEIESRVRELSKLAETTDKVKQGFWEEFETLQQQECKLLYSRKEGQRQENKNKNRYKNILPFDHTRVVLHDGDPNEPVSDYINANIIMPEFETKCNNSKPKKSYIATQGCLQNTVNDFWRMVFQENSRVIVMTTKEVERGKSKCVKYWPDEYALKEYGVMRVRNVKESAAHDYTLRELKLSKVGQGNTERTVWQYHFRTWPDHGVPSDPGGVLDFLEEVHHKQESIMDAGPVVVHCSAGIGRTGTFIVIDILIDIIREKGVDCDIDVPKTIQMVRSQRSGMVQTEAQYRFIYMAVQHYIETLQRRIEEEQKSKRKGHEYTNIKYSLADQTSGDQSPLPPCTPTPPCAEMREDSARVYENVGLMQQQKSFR

Row | Structure (SMILES) | IC50 [1] [nM] | IC50 [2] [nM] | IC50 [3] [nM] | Pharmacokinetic properties (conclusion in words) [4] | AUC(0-inf) ([4]; mouse, 10 mg/kg per table (method text says 1 mg/kg), plasma, read-out: Area under curve AUC0-∞) [ng·h/mL] | Cmax ([4]; mouse, 10 mg/kg per table (method text says 1 mg/kg), plasma, read-out: Blood concentration Cmax) [ng/mL] | Pharmacokinetic properties (conclusion in words) [5] | AUC(0-inf) ([5]; mouse, plasma, read-out: Area under curve AUC0-∞) [ng·h/mL] | Cmax ([5]; mouse, plasma, read-out: Blood concentration Cmax) [ng/mL] | Tmax ([5]; mouse, plasma, read-out: Peak time Tmax) [h] | Growth inhibition effect on NCI-H358 tumor-bearing mice (in words) ([6]; 30 mg/kg) | Body weight change ([6]; 30 mg/kg po qd for 10 days) | Tumor volume (mm^3, mean value ± standard error) Day 0 ([6]; Day 0 (at grouping), 30 mg/kg po qd group) [mm^3] | TGI % Day 10 [6, 7] [%] | Tumor volume (mm^3, mean value ± standard error) Day 10 [6, 7] [mm^3]
1 | NC(=O)c1nc(N2CCC(N)(c3ccccc3)CC2)nc2[nH]nc(-c3cccc(Cl)c3Cl)c12 [Example 6, 6-(4-amino-4-phenylpiperidin-1-yl)-3-(2,3-dichlorophenyl)-1H-pyrazolo[3,4-d]pyrimidine-4-carboxamide] | 4 | 61 | 19 | good pharmacokinetic properties | 18500 | 1190 |  |  |  |  |  |  |  |  | 
2 | NC(=O)c1nc(N2CCC(N)(c3ccccc3)CC2)nc2[nH]nc(-c3ccnc(Cl)c3Cl)c12 [Example 27, 6-(4-amino-4-phenylpiperidin-1-yl)-3-(2,3-dichloropyridin-4-yl)-1H-pyrazolo[3,4-d]pyrimidine-4-carboxamide] | 7 | 167 | 37 |  |  |  | good pharmacokinetic properties | 2720 | 285 | 8 | obvious growth inhibition effects | no obvious change in body weight | 138 ± 14 | 55.6 | 155 ± 22
